Results: the NIST ThermoML archive (doi:10.1016/j.jct.2015.09.002)
± gives the expanded uncertainty stated by the source.

Test: xn = mol fraction of the nth substance listed
Details: 93.2 kPa, Liquid, Vibrating tube method

CCN(CC)CC [triethylamine] + CC#N
mass density [kg/m3]
Details	293.15 K	298.15 K	303.15 K	308.15 K
x2 = 0	727.7 ± 2	723.02 ± 2	718.36 ± 2	713.65 ± 2
x2 = 0.0113	728.13 ± 2	723.44 ± 2	718.77 ± 2	714.06 ± 2
x2 = 0.0212	728.41 ± 2	723.73 ± 2	719.05 ± 2	714.32 ± 2
x2 = 0.03	728.67 ± 2	723.97 ± 2	719.29 ± 2	714.57 ± 2
x2 = 0.0406	728.98 ± 2	724.28 ± 2	719.6 ± 2	714.86 ± 2
x2 = 0.0502	729.23 ± 2	724.53 ± 2	719.84 ± 2	715.1 ± 2
x2 = 0.0591	729.48 ± 2	724.77 ± 2	720.06 ± 2	715.32 ± 2
x2 = 0.0701	729.78 ± 2	725.07 ± 2	720.35 ± 2	715.6 ± 2
x2 = 0.0842	730.18 ± 2	725.45 ± 2	720.73 ± 2	715.97 ± 2
x2 = 0.0944	730.47 ± 2	725.73 ± 2	721.02 ± 2	716.24 ± 2
x2 = 0.1013	730.66 ± 2	725.97 ± 2	721.24 ± 2	716.48 ± 2
x2 = 0.1519	732.16 ± 2	727.46 ± 2	722.63 ± 2	717.85 ± 2
x2 = 0.1991	733.6 ± 2	728.85 ± 2	723.99 ± 2	719.16 ± 2
x2 = 0.2501	735.21 ± 2	730.39 ± 2	725.53 ± 2	720.64 ± 2
x2 = 0.3018	736.94 ± 2	732.07 ± 2	727.17 ± 2	722.25 ± 2
x2 = 0.3505	738.65 ± 2	733.76 ± 2	728.84 ± 2	723.88 ± 2
x2 = 0.4003	740.52 ± 2	735.58 ± 2	730.62 ± 2	725.63 ± 2
x2 = 0.4482	742.43 ± 2	737.48 ± 2	732.49 ± 2	727.48 ± 2
x2 = 0.5002	744.69 ± 2	739.7 ± 2	734.68 ± 2	729.63 ± 2
x2 = 0.5511	747.1 ± 2	742.08 ± 2	737.03 ± 2	731.95 ± 2
x2 = 0.5995	749.58 ± 2	744.55 ± 2	739.43 ± 2	734.36 ± 2
x2 = 0.6499	752.4 ± 2	747.32 ± 2	742.18 ± 2	737.06 ± 2
x2 = 0.702	755.6 ± 2	750.5 ± 2	745.3 ± 2	740.16 ± 2
x2 = 0.7498	758.83 ± 2	753.71 ± 2	748.42 ± 2	743.28 ± 2
x2 = 0.7998	762.53 ± 2	757.35 ± 2	752.07 ± 2	746.81 ± 2
x2 = 0.85	766.68 ± 2	761.45 ± 2	756.13 ± 2	750.82 ± 2
x2 = 0.8994	771.19 ± 2	765.92 ± 2	760.59 ± 2	755.2 ± 2
x2 = 0.9095	772.21 ± 2	766.93 ± 2	761.6 ± 2	756.23 ± 2
x2 = 0.9199	773.25 ± 2	767.97 ± 2	762.63 ± 2	757.25 ± 2
x2 = 0.9293	774.23 ± 2	768.93 ± 2	763.58 ± 2	758.19 ± 2
x2 = 0.9402	775.35 ± 2	770.05 ± 2	764.69 ± 2	759.29 ± 2
x2 = 0.9495	776.36 ± 2	771.03 ± 2	765.7 ± 2	760.33 ± 2
x2 = 0.9591	777.43 ± 2	772.08 ± 2	766.69 ± 2	761.27 ± 2
x2 = 0.9685	778.48 ± 2	773.13 ± 2	767.72 ± 2	762.31 ± 2
x2 = 0.99	780.9 ± 2	775.52 ± 2	770.1 ± 2	764.64 ± 2
